In ChEMBL document CHEMBL5523673, “Progress in the controllability technology of PROTAC” (Eur J Med Chem, 2024) one finds IC50, Emax and DC50 data, which are given here for 6 compounds.

Data set [1] deals with Epidermal growth factor receptor (Homo sapiens, UniProt P00533). As to the kind of experiment: Inhibition of EGFR (unknown origin).
Data set [2] relates to OVCAR-8. As to the kind of experiment: Antiproliferative activity against human OVCAR-8 cells assessed as reduction in cell viability incubated for 72 hrs by CCK-8 assay. The note with it: OVCAR-8, 72 h. The data set is classed as functional, cell-based.
For data set [3], the system named is T47D. The data set can be described thus: Antiproliferative activity against human T47D cells assessed as reduction in cell viability incubated for 72 hrs by CCK-8 assay. It counts as functional, cell-based. (In general: Tetrazolium dyes change colour on reduction, which living cells bring about.)
Data set [4] can be described thus: Antiproliferative activity against human HFF-1 cells assessed as reduction in cell viability incubated for 72 hrs by CCK-8 assay. It counts as toxicity, cell-based.
Data set [5] can be described thus: Antiproliferative activity against human HK-2 cells assessed as reduction in cell viability incubated for 72 hrs by CCK-8 assay. It counts as toxicity, cell-based.
Data set [6] in a line: Antiproliferative activity against mouse 3T3 cells assessed as reduction in cell viability incubated for 72 hrs by CCK-8 assay. The data set is classed as toxicity, cell-based. To be noted: NIH3T3 cells.
Data set [7] relates to MCF7. As to the kind of experiment: Antiproliferative activity against human MCF7 cells assessed as reduction in cell viability incubated for 72 hrs by CellTiter-Glo luminescent assay. The data set is classed as functional, cell-based. The note with it: MCF7, 72 h. Background: ATP-based viability assays read luminescence as a measure of living cells.
For data set [8], the target named is T1, von Hippel-Lindau disease tumor suppressor/Bromodomain-containing protein 4 (Homo sapiens, UniProt O60885+P40337). The data set can be described thus: PROTAC activity at human VHL/BRD4 in human HeLa cells assessed as maximal degradation of BRD4 incubated for 24 hrs by Western blot analysis relative to control. It counts as cell-based. A general note: Immunoblotting shows a protein as a band on a membrane.
T1 sequence (P40337 whole entry, looked up, other chains not shown): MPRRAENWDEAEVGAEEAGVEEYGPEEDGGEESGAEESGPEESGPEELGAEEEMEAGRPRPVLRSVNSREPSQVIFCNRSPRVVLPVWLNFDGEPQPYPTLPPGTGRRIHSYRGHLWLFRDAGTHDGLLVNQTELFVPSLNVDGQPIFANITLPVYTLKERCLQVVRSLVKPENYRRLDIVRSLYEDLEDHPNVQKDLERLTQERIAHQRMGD

The target in data set [9] is Protein cereblon/Bromodomain-containing protein 4 (Homo sapiens) (UniProt O60885+Q96SW2). The data set can be described thus: PROTAC activity at CRBN/BRD4 in human NAMALVA cells assessed as maximal degradation at 1 uM incubated for 30 mins by Western blot analysis relative to control. The data set is classed as cell-based.
Protein cereblon/Bromodomain-containing protein 4 (Homo sapiens), sequence (Q96SW2 whole entry, looked up, other chains not shown): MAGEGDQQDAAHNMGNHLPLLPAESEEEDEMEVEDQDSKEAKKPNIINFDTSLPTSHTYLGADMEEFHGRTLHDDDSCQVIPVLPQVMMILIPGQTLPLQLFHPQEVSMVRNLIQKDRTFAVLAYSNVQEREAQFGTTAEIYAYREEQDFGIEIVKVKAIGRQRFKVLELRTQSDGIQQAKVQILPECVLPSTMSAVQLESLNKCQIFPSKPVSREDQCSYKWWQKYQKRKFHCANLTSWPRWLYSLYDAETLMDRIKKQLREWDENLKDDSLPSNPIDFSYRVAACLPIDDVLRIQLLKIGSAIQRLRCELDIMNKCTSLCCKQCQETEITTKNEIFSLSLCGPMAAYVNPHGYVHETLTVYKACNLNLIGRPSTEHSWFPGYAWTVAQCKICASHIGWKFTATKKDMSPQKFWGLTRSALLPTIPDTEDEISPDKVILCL
For data set [10], the system named is MCF7. The data set can be described thus: Cytotoxicity against human MCF7 cells assessed as reduction in cell growth incubated for 72 hrs by CellTiter-Glo luminescent assay. It counts as functional, cell-based. The note with it: MCF7, 72 h.
Data set [11] concerns the target T1, von Hippel-Lindau disease tumor suppressor/Bromodomain-containing protein 4. The data set can be described thus: PROTAC activity at VHL/BRD4 in human MCF7 cells assessed as induction of BRD4 degradation incubated for 18 hrs by Western blotting analysis. It counts as cell-based.
The target is the same in data set [12]. The data set can be described thus: PROTAC activity at human VHL/BRD4 in human MCF7 cells assessed as maximum degradation of BRD4 measured after 18 hrs by Western blot analysis relative to control. The data set is classed as cell-based.

Some results are limits rather than exact numbers.

Epidermal growth factor receptor, sequence (P00533 whole entry): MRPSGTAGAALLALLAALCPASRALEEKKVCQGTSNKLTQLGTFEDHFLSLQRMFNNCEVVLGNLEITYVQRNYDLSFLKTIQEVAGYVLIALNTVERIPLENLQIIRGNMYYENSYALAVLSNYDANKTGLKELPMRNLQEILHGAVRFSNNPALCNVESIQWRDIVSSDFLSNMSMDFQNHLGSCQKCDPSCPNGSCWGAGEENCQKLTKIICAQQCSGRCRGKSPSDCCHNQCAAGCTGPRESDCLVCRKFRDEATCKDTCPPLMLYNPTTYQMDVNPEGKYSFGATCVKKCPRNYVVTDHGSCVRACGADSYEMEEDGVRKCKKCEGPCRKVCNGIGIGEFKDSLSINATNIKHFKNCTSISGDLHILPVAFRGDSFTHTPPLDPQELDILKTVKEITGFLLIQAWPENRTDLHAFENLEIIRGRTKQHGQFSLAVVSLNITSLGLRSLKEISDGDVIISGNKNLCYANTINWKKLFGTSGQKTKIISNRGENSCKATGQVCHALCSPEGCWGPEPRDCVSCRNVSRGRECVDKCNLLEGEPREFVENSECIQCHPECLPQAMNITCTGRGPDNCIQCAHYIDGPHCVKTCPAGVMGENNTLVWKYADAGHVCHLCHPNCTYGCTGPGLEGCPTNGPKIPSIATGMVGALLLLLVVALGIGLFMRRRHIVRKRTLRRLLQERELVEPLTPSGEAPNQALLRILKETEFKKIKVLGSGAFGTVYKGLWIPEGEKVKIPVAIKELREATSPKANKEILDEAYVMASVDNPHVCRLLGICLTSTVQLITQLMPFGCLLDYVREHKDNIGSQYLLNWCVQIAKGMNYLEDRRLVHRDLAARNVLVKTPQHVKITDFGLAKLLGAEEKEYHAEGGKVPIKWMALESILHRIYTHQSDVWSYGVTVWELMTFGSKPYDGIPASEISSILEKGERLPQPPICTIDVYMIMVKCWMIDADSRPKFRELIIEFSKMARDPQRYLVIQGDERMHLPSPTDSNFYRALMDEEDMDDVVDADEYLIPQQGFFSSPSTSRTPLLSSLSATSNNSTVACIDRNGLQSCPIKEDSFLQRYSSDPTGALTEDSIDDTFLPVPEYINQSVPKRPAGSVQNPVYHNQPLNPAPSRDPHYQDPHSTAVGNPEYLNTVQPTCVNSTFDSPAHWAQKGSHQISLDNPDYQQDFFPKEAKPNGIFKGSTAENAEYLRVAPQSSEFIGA

`COc1cc2ncnc(N(Cc3ccc([N+](=O)[O-])cc3)c3ccc(F)c(Cl)c3)c2cc1OCCOCCOCCOCCC(=O)Nc1cccc2c1CN(C1CCC(=O)NC1=O)C2=O` (stereo not drawn): in data set [1], the midpoint of inhibition, the IC50, lay at 3560 nM.

Regarding `Cc1ncsc1-c1ccc([C@H](C)NC(=O)[C@@H]2C[C@@H](OC(=O)CCCCn3cc(CNC(=O)CC[C@H](NC(=O)c4ccc(NCc5cnc6nc(N)[nH]c(=O)c6n5)cc4)C(=O)O)nn3)CN2C(=O)[C@@H](NC(=O)COCCCOCCNC(=O)C[C@@H]2N=C(c3ccc(Cl)cc3)c3c(sc(C)c3C)-n3c(C)nnc32)C(C)(C)C)cc1`, the IC50 in data set [2] came out at 297 nM; in data set [3], 18 nM. Moreover, the IC50 at 72 h in data set [4] was above 10000 nM; in data set [5] it was 2100 nM; in data set [6] it was 1400 nM.

Turning to `Cc1ncsc1-c1ccc([C@H](C)NC(=O)[C@@H]2C[C@@H](O)CN2C(=O)[C@@H](NC(=O)COCCCOCCNC(=O)C[C@@H]2N=C(c3ccc(Cl)cc3)c3c(sc(C)c3C)-n3c(C)nnc32)C(C)(C)C)cc1`, the IC50 in data set [2] was 215 nM; in data set [3], 13 nM; in data set [7] it was 120 nM. The results for the IC50 at 72 h in data set [4], in [5] and in data set [6] were 1100 nM, 160 nM and 210 nM, respectively.

`Cc1ncsc1-c1ccc([C@H](C)NC(=O)[C@@H]2C[C@@H](OC(=O)Cc3ccc(B4OC(C)(C)C(C)(C)O4)cc3)CN2C(=O)[C@@H](NC(=O)COCCCOCCNC(=O)C[C@@H]2N=C(c3ccc(Cl)cc3)c3c(sc(C)c3C)-n3c(C)nnc32)C(C)(C)C)cc1`: in data set [8], the Emax is 70%.

`COc1cc(CN(CCCCNC(=O)COc2cccc3c2C(=O)N(C2CCC(=O)NC2=O)C3=O)C(=O)CC2N=C(c3ccc(Cl)cc3)c3c(sc(C)c3C)-n3c(C)nnc32)c([N+](=O)[O-])cc1OC` (stereo not drawn): the Emax in data set [9] is 93%.

With `Cc1sc2c(c1C)C(c1ccc(Cl)cc1)=N[C@@H](CC(=O)NCCCCCN(Cc1ccc(B(O)O)cc1)c1cccc3c1CN(C1CCC(=O)NC1=O)C3=O)c1nnc(C)n1-2` (stereo partly drawn), the IC50 was 122 nM in data set [7] and 1020 nM in data set [10]. In data set [11], the DC50 was determined as 31.2 nM. Besides, the Emax in data set [12] is 77.5%.

What is called IC50 is the concentration that inhibits the measured activity by half. A word on the Emax: it is the size of the effect at its maximum, as opposed to the concentration needed. In general, DC50 refers to the midpoint of the concentration-degradation curve.
